Results: article PMC8226850, “Thermal Inactivation Kinetics of Kudzu (Pueraria lobata) Polyphenol Oxidase and the Influence of Food Constituents” (Foods, 2021)

Tested on: T1, pPPO (purified kudzu polyphenol oxidase)
T1 construct: gene PPO; single prominent SDS-PAGE band approx. 21 kDa
Test: UV-visible spectrophotometry at […] nm, Lineweaver-Burk
Type: biochemical, Pueraria montana var. lobata
Details: catechol oxidation; activity assay in McIlvaine buffer pH 5.0, 25 °C

Work on Oc1ccccc1O [catechol] yielded a Km of 23.5 mM.
